What was measured:
[1] = tested on: viable gram-positive and gram-negative bacteria; assay: Differentiation in RIND XXIX solution assays, overall result; assay type: cell-based; details: gramicidin S 0.1 mg/ml, tyrocidin 3.3 mg/ml
Protocol: (§1) Each test solution contained the following: dispersion of RIND XXIX (25 μl) prepared as described above, glucose (400 μl of 10% aqueous solution), tryptose (400 μl of 10% aqueous solution), trimethyl-1,4-benzoquinone ETA (500 μl of 1.5 mg/ml methanol). Aliquots (200 μl) of the mixture were mixed with solutions of the antibiotics (50 μl). The cell suspensions (50 μl) were then added. The final concentration of gramcidin S and tyrocidin were 0.1 mg/ml and 3.3 mg/ml, respectively. The final cell concentration was about 5×10^7 cells/ml. Cell control solutions contained all reagents except antibiotics. Background controls consisted of both buffer and solution controls. The buffer control contained all reagents except antibiotics and cells. The solution control contained all reagents except cells.
(§2) The solutions were incubated at 37° C. for 30 minutes, and the change in fluorescence emission (Δ fluorescence) was determined as the difference between the readings taken when the solutions were first mixed and then after 30 minutes incubation. Measurements were made in a commercially available MICROFLUOR Reader (available from Dynatech Laboratories, Alexandria, Virginia, U.S.A.), modified with an excitation filter at 540 nm, an emission filter at 620 nm and a Xenon lamp.
This example illustrates the practice of this invention to identify a Proteus species in solution. Test solutions and cell control solutions were prepared and tested as described in Example 2 and 3 except that polymixin B was used at 0.01 mg/ml of methanol. The final cell concentration was about 5×10^7 cells/ml.

[2] = tested on: E. coli; assay: DCIP reduction solution assay, ΔOD 620 nm; assay type: cell-based, Escherichia coli; details: E. coli (-) 5×10^7, gramicidin S 0.00625 mg/ml, 37° C.
Protocol: (§3) These examples illustrate the differentiation of bacteria using a tetrazolium salt and phenolic dye as the reducible compounds and two cyclic polypeptide antibiotics according to the present invention. The tetrazolium salt was 3-(4,5-dimethyl-2-thiazolyl) -2,5-diphenyl-2H-tetrazolium bromide (MTT) which forms a colored formazan dye when reduced. The phenolic dye was 2,6-dichloroindophenol (DCIP) which forms a colorless species when reduced.
(§4) Solutions of the reducible compounds were prepared with the following: HEPES buffer (3 ml, 0.05 molar, pH 7.5), TRITON X-100 nonionic surfactant (1% concentration), glucose (50 μl of 10% in water), tryptose (50 μl of a 10% solution in water), MTT (25 μl of 5 mg/ml methanol) or DCIP (25 μl of 3 mg/ml methanol) and phenazine methosultate ETA (25 μl of 3 mg/ml methanol).
(§5) Test solutions were prepared from the following: reducible compound solution from above (200 μl), 50 μl of either gramicidin S solution (6 mg/ml methanol and 9 ml of buffer) or tyrocidin solution (100 mg/ml methanol and 8 ml of buffer) and 50 μl of cell suspension. […] The change in optical density (ΔOD) was determined after 30 minutes at 37° C. at 540 nm for the MTT assay and at 620 nm for the DCIP assay using a commercially available spectrophotometer.

[3] = tested on: S. aureus; assay: RIND XXIX reduction solution assay, Δ fluorescence; assay type: cell-based, Staphylococcus aureus; details: S. aureus (gram +) about 5×10^7 cells/ml, gramicidin S 0.1 mg/ml, 37° C.
Protocol: (§6) Bacterial suspensions were prepared by growing the cells in BHT broth to stationary phase overnight at 37° C. P. auruginosa was grown with agitation. About 40 ml of each overnight culture was centrifuged, decanted and washed once with 0.05 molar potassium phosphate buffer or 0.05 molar N-2-hydroxy-ethylpiperazine-N'-2-ethanesulfonic acid (HEPES) buffer, pH 7.8, and resuspended in buffer.
(§7) Dispersions containing RIND compounds were prepared by dissolving the RIND compound in N,N-dimethylformamide (DMF) at 16 mg compound per ml of solvent. An aliquot (250 μl) of the resulting solution was added to 500 μl of TRITON X-100 surfactant. This mixture was then added dropwise with stirring to 25 ml of 0.05 molar HEPES buffer. A dispersion of RIND XXIX was prepared similarly except that DMF was acidified with 0.1% sulfuric acid. […]
as §2

[4] = tested on: P. vulgaris; assay: DCIP reduction solution assay, ΔOD 620 nm; assay type: cell-based, Proteus vulgaris; details: P. vulgaris (-) 5×10^7, gramicidin S 0.00625 mg/ml, 37° C.
Protocol: as §3, §4, §5

[5] = tested on: K. pneumoniae; assay: RIND XXIX reduction solution assay, Δ fluorescence; assay type: cell-based, Klebsiella pneumoniae; details: K. pneumoniae (gram -) about 5×10^7 cells/ml, gramicidin S 0.1 mg/ml, 37° C.
Protocol: as §6
(§8) Dispersions containing RIND compounds were prepared by dissolving the RIND compound in N,N-dimethylformamide (DMF) at 16 mg compound per ml of solvent. An aliquot (250 μl) of the resulting solution was added to 500 μl of TRITON X-100 surfactant. This mixture was then added dropwise with stirring to 25 ml of 0.05 molar HEPES buffer. A dispersion of RIND XXIX was prepared similarly except that DMF was acidified with 0.1% sulfuric acid. Compositions containing water-compatible RIND compounds were prepared as described above except the surfactant was omitted.
as §1, with “The buffer control contained all reagents except antibiotics and cells. The solution control contained all reagents except cells.” left out
as §2, with “lamp. […]” for “lamp.”

[6] = tested on: S. aureus; assay: MTT reduction solution assay, ΔOD 540 nm; assay type: cell-based, Staphylococcus aureus; details: S. aureus (+) 5×10^7, gramicidin S 0.00625 mg/ml, 37° C.
Protocol: as §3, §4, §5

[7] = tested on: E. cloacae; assay: RIND XXIX reduction solution assay, Δ fluorescence; assay type: cell-based, Enterobacter cloacae; details: E. cloacae (gram -) about 5×10^7 cells/ml, gramicidin S 0.1 mg/ml, 37° C.
Protocol: as §6, §8
as §1, with “The buffer control contained all reagents except antibiotics and cells. The solution control contained all reagents except cells.” left out
as §2, with “lamp. […]” for “lamp.”

[8] = tested on: P. vulgaris; assay: MTT reduction solution assay, ΔOD 540 nm; assay type: cell-based, Proteus vulgaris; details: P. vulgaris (-) 5×10^7, gramicidin S 0.00625 mg/ml, 37° C.
Protocol: as §3, §4, §5

[9] = tested on: E. coli; assay: RIND XXIX reduction solution assay, Δ fluorescence; assay type: cell-based, Escherichia coli; details: E. coli (gram -) about 5×10^7 cells/ml, gramicidin S 0.1 mg/ml, 37° C.
Protocol: as §6, §8
as §1, with “The buffer control contained all reagents except antibiotics and cells. The solution control contained all reagents except cells.” left out
as §2, with “lamp. […]” for “lamp.”

[10] = tested on: S. faecalis; assay: RIND XXIX reduction solution assay, Δ fluorescence; assay type: cell-based, Streptococcus faecalis; details: S. faecalis (gram +) about 5×10^7 cells/ml, gramicidin S 0.1 mg/ml, 37° C.
Protocol: as §6, §7, §2

What does the source list for gramicidin S?
differentiation between viable gram-positive and gram-negative bacteria, in words [1]: can be used with RIND XXIX to differentiate between viable gram-positive and gram-negative bacteria; ΔOD, 620 nm after 30 Minutes [2]: 1.042; Δ Fluorescence (30 Minutes) [3]: 0478; ΔOD, 620 nm after 30 Minutes [4]: 1.029; Δ Fluorescence (30 Minutes) [5]: 3084; ΔOD, 540 nm after 30 Minutes [6]: 0.177; Δ Fluorescence (30 Minutes) [7]: > 4000; ΔOD, 540 nm after 30 Minutes [8]: 0.841; Δ Fluorescence (30 Minutes) [9]: > 4000; Δ Fluorescence (30 Minutes) [10]: 0197

— patent publication US4912036A, “Rapid differentiation of bacteria using cyclic polypeptide antibiotics” (Eastman Kodak Company, priority 1986, dated 1990)
